Assay results as given in article PMC8514817, “De Novo Design of Antimicrobial Peptides With a Special Charge Pattern and Their Application in Combating Plant Pathogens” (Frontiers in Plant Science, 2021).

Legend:
Pss B728a = settings: Table 4, rich medium, up to 32 μg/ml
Eco DH5α [1] = settings: 48 h
Xev Xvt28 [2] = settings: 48 h
Xoo Xoo28 = settings: Table 4, rich medium, up to 32 μg/ml
Cgl FST02 = settings: at the highest peptide concentration (32μg/ml) tested; data not shown; before the tests in minimal media
Xcc Xcc17 = settings: Table 4, rich medium, up to 32 μg/ml
Eco DH5α [3] = settings: DH5α, 24 h
Pst DC3000 = settings: Table 4, rich medium, up to 32 μg/ml
Xev Xvt28 [4] = settings: 24 h
[5] = tested on: Ralstonia solanacearum (Rs); type: cell-based; settings: at the highest peptide concentration (32μg/ml) tested; data not shown; before the tests in minimal media
Bc = settings: at the highest peptide concentration (32μg/ml) tested; data not shown; before the tests in minimal media
Atu C58C1 = settings: Table 4, rich medium, up to 32 μg/ml
[6] = spotted on rich agar 48 h, no colony

In the case of Ac-WKKLKKLLKKLKKLLKKL-NH2 [pepD], the MIC (Pss B728a; 48 h, no visible growth) is reported as 32 µg/mL, the MBC (Pss B728a; [6]) is reported as “– (“–” indicates that no antimicrobial activity was detected in rich media at the highest peptide concentration (32μg/ml) that was tested in this study.)” and the MBC (Pcc) is reported as “– (key: “–” indicates that no antimicrobial activity was detected in rich media at the highest peptide concentration (32μg/ml) that was tested in this study.)”. The MIC (Pcc; Table 4, rich medium, 48 h, no visible growth, up to 32 μg/ml) was 32 µg/mL, the MBC (Eco DH5α [1]) was 8 µg/mL and the MIC (Eco DH5α [1]) was 8 µg/mL. The MBC (Xev Xvt28 [2]) was 16 µg/mL, the MIC (Xev Xvt28 [2]) was 4 µg/mL and the MIC (Xoo Xoo28; 48 h, no visible growth) was 4 µg/mL. For the same substance, the MBC (Xoo Xoo28; [6]) was 4 µg/mL, the antimicrobial activity (Cgl FST02) was “did not have detectable antimicrobial activity” and the MIC (Xcc Xcc17; 48 h, no visible growth) was 2 µg/mL. For the same substance, the MBC (Xcc Xcc17; [6]) was 8 µg/mL, the IC50 (Eco DH5α [3]) was 10 µg/mL and the MIC (Pst DC3000; 48 h, no visible growth) was 16 µg/mL. The MBC (Pst DC3000; [6]) was 32 µg/mL, the IC50 (Xev Xvt28 [4]) was 4 µg/mL and the antimicrobial activity [5] was “did not have detectable antimicrobial activity”. The antimicrobial activity (Bc) was “did not have detectable antimicrobial activity”, the MIC (Atu C58C1; 48 h, no visible growth) was 4 µg/mL and the MBC (Atu C58C1; [6]) was “– (“–” indicates that no antimicrobial activity was detected in rich media at the highest peptide concentration (32μg/ml) that was tested in this study.)”.
